US9457033B2, “Steroid alkaloids and uses thereof as antimicrobial agents against electron transport-deficient microbes and as potentiators for antimicrobial agents against pathogenic bacteria” (priority 2011, dated 2016)
Values after ≈ are worked out from the molar mass of the structure shown. Where a name gives a salt, the structure may show the parent alone.

Legend:
[1] = test system: S. aureus CF35A-L; experiment: MIC, microdilution in CAMHB 24 h; assay type: cell-based, Staphylococcus aureus; conditions: CF35A-L; Human (CF lungs); MRSA
[2] = test system: S. aureus Newbould (normal strain); experiment: MIC, microdilution in BHI 48 h; assay type: cell-based, Staphylococcus aureus; conditions: Newbould, normal strain
[3] = test system: S. aureus CF7A-L; experiment: MIC, microdilution in CAMHB 24 h; assay type: cell-based, Staphylococcus aureus; conditions: CF7A-L; Human (CF lungs); MRSA
[4] = test system: S. aureus ATCC BAA-41; experiment: MIC, microdilution in CAMHB 24 h; assay type: cell-based, Staphylococcus aureus; conditions: ATCC BAA-41; Human (HA); MRSA
[5] = test system: S. aureus MA078038; experiment: MIC, microdilution in CAMHB 24 h; assay type: cell-based, Staphylococcus aureus; conditions: MA078038; Human (CA); MRSA
[6] = test system: S. aureus ATCC 29213; experiment: MIC, microdilution in BHI 48 h (Examples 1, 3); assay type: cell-based, Staphylococcus aureus
[7] = test system: S. aureus CF6B-L; experiment: MIC, microdilution in CAMHB 24 h; assay type: cell-based, Staphylococcus aureus; conditions: CF6B-L; Human (CF lungs)
[8] = test system: S. aureus Sa220c; experiment: MIC, microdilution in CAMHB 24 h; assay type: cell-based, Staphylococcus aureus; conditions: Sa220c; Human (SSTI); MRSA
[9] = test system: S. aureus Mu50; experiment: MIC, microdilution in CAMHB 24 h; assay type: cell-based, Staphylococcus aureus; conditions: Mu50; Human (SSTI); MRSA, VISA
[10] = test system: S. aureus CF2A-L; experiment: MIC, microdilution in CAMHB 24 h; assay type: cell-based; conditions: CF2A-L; Human (CF lungs)
[11] = test system: S. aureus SHY97-3906; experiment: MIC, microdilution in CAMHB 24 h; assay type: cell-based, Staphylococcus aureus; conditions: SHY97-3906; Cow (mastitis)
[12] = test system: S. aureus CF9A-L; experiment: MIC, microdilution in CAMHB 24 h; assay type: cell-based, Staphylococcus aureus; conditions: CF9A-L; Human (CF lungs); MRSA
[13] = test system: S. aureus ATCC 43300; experiment: MIC, microdilution in CAMHB 24 h; assay type: cell-based, Staphylococcus aureus; conditions: ATCC 43300; Human (HA); MRSA
[14] = test system: S. aureus CF1A-L; experiment: MIC, microdilution in CAMHB 24 h; assay type: cell-based, Staphylococcus aureus; conditions: CF1A-L; Human (CF lungs)
[15] = test system: S. aureus ATCC 29213; experiment: MIC, microdilution in CAMHB 24 h, with or without tomatidine/compound; assay type: cell-based, Staphylococcus aureus; conditions: for MIC −TO: absence of tomatidine; for MIC +TO: presence of tomatidine at 8 μg/ml; for Fold (−TO/+TO): tomatidine at 8 μg/ml; for Fold (MIC of GEN alone/MIC of GEN with Cpd): gentamicin with 8 μg/ml of Cpd, provided in categories of synergy (1-2 no or mild; 4-16 moderate or strong); for MIC of Cpd against ATCC29213: compound alone
[16] = test system: S. aureus Newman; experiment: MIC, microdilution in CAMHB 24 h; assay type: cell-based, Staphylococcus aureus; conditions: Newman; Human (Osteo)
[17] = test system: S. aureus CF4B-L; experiment: MIC, microdilution in CAMHB 24 h; assay type: cell-based, Staphylococcus aureus; conditions: CF4B-L; Human (CF lungs)
[18] = test system: S. aureus N315; experiment: microbe, parasite or virus in culture; assay type: cell-based, Staphylococcus aureus; conditions: N315; Human (HA); MRSA
[19] = test system: S. aureus 8325-4; experiment: MIC, microdilution in CAMHB 24 h; assay type: cell-based, Staphylococcus aureus; conditions: 8325-4; Laboratory strain
[20] = test system: S. aureus Sa228c; experiment: MIC, microdilution in CAMHB 24 h; assay type: cell-based, Staphylococcus aureus; conditions: Sa228c; Human (SSTI); MRSA
[21] = test system: S. aureus CF1A-L (normal strain); experiment: MIC, microdilution in BHI 48 h; assay type: cell-based, Staphylococcus aureus; conditions: CF1A-L, normal strain
[22] = test system: S. aureus Newbould; experiment: MIC, microdilution in CAMHB 24 h; assay type: cell-based, Staphylococcus aureus; conditions: Newbould; Cow (mastitis)
[23] = test system: S. aureus CF8E-L; experiment: MIC, microdilution in CAMHB 24 h; assay type: cell-based, Staphylococcus aureus; conditions: CF8E-L; Human (CF lungs)
[24] = test system: S. aureus CF07-L; experiment: MIC, microdilution in CAMHB 24 h; assay type: cell-based, Staphylococcus aureus; conditions: CF07-L; Human (CF lungs)
[25] = test system: S. aureus MRSA COL; experiment: MIC, microdilution in CAMHB 24 h; assay type: cell-based, Staphylococcus aureus; conditions: MRSA COL; Human (SSTI)
[26] = test system: S. aureus CF07-L (normal strain); experiment: MIC, microdilution in BHI 48 h (Examples 1, 3); assay type: cell-based, Staphylococcus aureus
[27] = test system: S. aureus SCV NewbouldΔhemB; experiment: MIC, microdilution in BHI 48 h; assay type: cell-based, Staphylococcus aureus; conditions: NewbouldΔhemB, SCV
[28] = test system: S. aureus SCV strain NewbouldΔhemB; experiment: MIC of compounds against SCV; assay type: cell-based, Staphylococcus aureus; conditions: for MIC of Cpd against SCV hemB: provided in categories (strong ≦ 0.5; moderate 4-8; low > 8)

With `Cc1onc(-c2ccccc2)c1C(=O)N[C@@H]1C(=O)N2[C@@H]1SC(C)(C)[C@@H]2C(=O)O` [Oxacillin, oxacillin] as the compound, how does the MIC [1] read?
Its MIC is >64 (R) μg/ml.

And the MIC [2]?
The MIC was 0.06 to 0.12 µg/mL.

And the MIC [3]?
The MIC was >64 (R) μg/ml.

And the MIC [4]?
The MIC was >64 (R) μg/ml.

And the MIC [5]?
The MIC was 64 (R) μg/ml.

What about the MIC ([6]; ATCC 29213 + HQNO at 20 μg/ml) of the same compound?
The MIC was 0.12 µg/mL.

What about the MIC ([6]; ATCC 29213, without HQNO) of the same compound?
The MIC was 0.12 to 0.25 µg/mL.

And the MIC ([6]; ATCC 29213 in BHI)?
The MIC was 0.12 to 0.25 µg/mL.

And the MIC ([6]; ATCC 29213 in MHBCA)?
The MIC was 0.12 to 0.5 µg/mL.

And the MIC [7]?
Its MIC is 0.25 to 1 µg/mL.

And the MIC [8]?
Its MIC is 16-32 (R) μg/ml.

What about the MIC [9] of the same compound?
The MIC was >64 (R) μg/ml.

And the MIC [10]?
The MIC was 0.25 µg/mL (≈ 0.623 µM).

And the MIC [11]?
The MIC was 0.12 to 0.25 µg/mL.

And the MIC [12]?
The MIC was >64 (R) μg/ml.

What about the MIC [13] of the same compound?
The MIC was 16-32 (R) μg/ml.

What about the MIC [14] of the same compound?
The MIC was 0.25 to 0.5 µg/mL.

And the MIC ([15]; ATCC 29213, Human (SSTI))?
Its MIC is 0.25 µg/mL (≈ 0.623 µM).

What about the “MIC −TO” value ([15]; ATCC 29213) of the same compound?
The value was 0.25 µg/mL (≈ 0.623 µM).

And the “MIC +TO” value ([15]; ATCC 29213)?
The value was 0.25 µg/mL.

What about the “Fold (−TO/+TO)” value ([15]; ATCC 29213) of the same compound?
The value was 1 fold.

What about the MIC [16] of the same compound?
The MIC was 0.5 to 1 µg/mL.

What about the MIC [17] of the same compound?
The MIC was 0.5 µg/mL (≈ 1.25 µM).

And the MIC [18]?
Its MIC is 8 (R) μg/ml.

And the MIC [19]?
The MIC was 0.12 µg/mL (≈ 0.299 µM).

And the MIC [20]?
The MIC was >64 (R) μg/ml.

What about the MIC [21] of the same compound?
The MIC was 0.25 µg/mL (≈ 0.623 µM).

What about the MIC [22] of the same compound?
Its MIC is 0.12 µg/mL (≈ 0.299 µM).

And the MIC [23]?
The MIC was 0.125 µg/mL (≈ 0.311 µM).

And the MIC [24]?
The MIC was 0.12 to 0.25 µg/mL.

And the MIC [25]?
Its MIC is >64 (R) μg/ml.

And the MIC ([26]; CF07-L + HQNO at 20 μg/ml)?
Its MIC is 0.06 to 0.12 µg/mL.

What about the MIC ([26]; CF07-L, normal strain) of the same compound?
Its MIC is 0.06 to 0.12 µg/mL.

And the MIC ([26]; CF07-L, without HQNO)?
The MIC was 0.06 to 0.12 µg/mL.

What about the MIC [27] of the same compound?
Its MIC is 0.03 to 0.06 µg/mL.

With `CN(C)[C@@H]1C(=O)C(C(N)=O)=C(O)[C@@]2(O)C(=O)C3=C(O)c4c(O)cccc4[C@@](C)(O)[C@H]3C[C@@H]12` [Tetracycline, tetracycline] as the compound, how does the MIC [1] read?
Its MIC is 0.5 µg/mL (≈ 1.13 µM).

What about the MIC [3] of the same compound?
Its MIC is 0.25 to 0.5 µg/mL.

And the MIC [4]?
The MIC was 0.5 µg/mL (≈ 1.13 µM).

And the MIC [5]?
The MIC was 0.5 µg/mL (≈ 1.13 µM).

What about the MIC [7] of the same compound?
Its MIC is 0.25 µg/mL (≈ 0.563 µM).

What about the MIC [8] of the same compound?
The MIC was 0.5 µg/mL (≈ 1.13 µM).

What about the MIC [9] of the same compound?
Its MIC is >16 (R) μg/ml.

What about the MIC [10] of the same compound?
Its MIC is 2 µg/mL (≈ 4.5 µM).

What about the MIC [11] of the same compound?
The MIC was 0.25 to 0.5 µg/mL.

What about the MIC [12] of the same compound?
The MIC was 0.25 to 0.5 µg/mL.

And the MIC [13]?
The MIC was 0.5 µg/mL (≈ 1.13 µM).

What about the MIC [14] of the same compound?
Its MIC is 0.25 µg/mL (≈ 0.563 µM).

What about the MIC ([15]; ATCC 29213, Human (SSTI)) of the same compound?
The MIC was 0.25 to 0.5 µg/mL.

What about the “MIC −TO” value ([15]; ATCC 29213) of the same compound?
Its value is 0.25 to 0.5 µg/mL.

And the “MIC +TO” value ([15]; ATCC 29213)?
The value was 0.25 to 0.5 µg/mL.

What about the “Fold (−TO/+TO)” value ([15]; ATCC 29213) of the same compound?
The value was 1 fold.

And the MIC [16]?
The MIC was 0.25 to 0.5 µg/mL.

And the MIC [17]?
Its MIC is 0.25 µg/mL (≈ 0.563 µM).

And the MIC [18]?
Its MIC is 0.5 µg/mL (≈ 1.13 µM).

What about the MIC [19] of the same compound?
Its MIC is 0.25 µg/mL (≈ 0.563 µM).

What about the MIC [20] of the same compound?
The MIC was >16 (R) μg/ml.

What about the MIC [22] of the same compound?
The MIC was 0.25 to 0.5 µg/mL.

What about the MIC [23] of the same compound?
The MIC was 0.25 to 0.5 µg/mL.

And the MIC [24]?
The MIC was 0.5 µg/mL (≈ 1.13 µM).

And the MIC [25]?
The MIC was 1 to 2 µg/mL.

Which MIC ([28]; Staphylococcus aureus, read-out: MIC of Cpd against SCV hemB) does the source give for `C[C@H]1CC[C@]2(NC1)O[C@H]1C[C@H]3[C@@H]4CC[C@H]5C[C@@H](O)CC[C@]5(C)[C@H]4CC[C@]3(C)[C@H]1[C@@H]2C` [Tomatidine hydrochloride salt] here?
The MIC was ≤ 0.5 µg/mL.

And the MIC ([15]; Staphylococcus aureus, ATCC29213, read-out: MIC of Cpd against ATCC29213)?
The MIC was > 16 µg/mL.

And the “Fold (MIC of GEN alone/MIC of GEN with Cpd)” value [15]?
The value was 4-16 fold.

Solasodan was tested. Which “MIC of Cpd against SCV hemB” value [28] did it give?
Its value is >8 µg/mL.

And the “MIC of Cpd against ATCC29213” value [15]?
The value was >16 µg/mL.

And the “Fold (MIC of GEN alone/MIC of GEN with Cpd)” value [15]?
The value was 1-2 fold.

Which “MIC of Cpd against SCV hemB” value [28] does the source give for “pregnan-3β-ol-20-(aminobutyl)amine hydrochloride Salt [Compound 44]” here?
Its value is >8 µg/mL.

What about the “MIC of Cpd against ATCC29213” value [15] of the same compound?
The value was >16 µg/mL.

And the “Fold (MIC of GEN alone/MIC of GEN with Cpd)” value [15]?
The value was 1-2 fold.

What does the source list for “pregnan-3β-ol-20-(aminoethyl)amine hydrochloride Salt [Compound 42]”?
MIC of Cpd against SCV hemB [28]: 4 to 8 µg/mL; MIC of Cpd against ATCC29213 [15]: >16 µg/mL; Fold (MIC of GEN alone/MIC of GEN with Cpd) [15]: 1-2 fold

Which results are given for “pregnan-3β-ol-20-(aminopropyl)amine hydrochloride Salt [Compound 43]”?
MIC of Cpd against SCV hemB [28]: 4 to 8 µg/mL; MIC of Cpd against ATCC29213 [15]: >16 µg/mL; Fold (MIC of GEN alone/MIC of GEN with Cpd) [15]: 1-2 fold
